Tests used:
[1] = after five EtO sterilization cycles; polymeric articles; cited from earlier work
[2] = test system: Staphylococcus aureus (ATCC 29213); experiment: Disc zone of inhibition on agar plates coated with S. aureus; assay type: cell-based; conditions: for zone of inhibition: disc containing 5 μg, agar plates coated with S. aureus ATCC 29213, 35° C. for 24 hours
Description: The ability of the compound of Formula II to inhibit growth of Staphylococcus aureus (ATCC 29213) was determined in vitro. Briefly, agar plates were coated with S. aureus and discs containing 5 μg of rifampin and 5 μg of a compound of Formula II were placed on the coated plates. The plates were incubated at 35° C. for 24 hours and the zones of inhibition of the rifampin and the compound of Formula II were determined. The zone of inhibition for the rifampin loaded disc was 28 mm. The zone of inhibition for the disc with a compound of Formula II was 18 mm.

[3] = test system: Staphylococcus aureus (ATCC 29213); experiment: Minimum Inhibitory Concentration (MIC) evaluation; assay type: cell-based; conditions: ATCC29213, S. aureus, in vitro, read-out: Baseline MIC

| MIC [3] | Compound | rifampin recoverable [1] | zone of inhibition [2] | activity against Staphlococcus aureus ([2]; qualitative statement in summary) |
| --- | --- | --- | --- | --- |
| – | 5,6,9,17,19,21-Hexahydroxy-23-methoxy-2,4,12,16,18,20,22-heptamethyl-8-[N-(4-methyl-1-piperazinyl)formimidoyl]-2,7-(epoxypentadeca[1,11,13]trienimino)-naphtho[2,1-b]furan-1,11(2H)-dione 21-acetate [rifampin] | 5% | 28 mm | – |
| 2 to 4 µg/mL | COC1/C=C/OC2(C)Oc3c(C)c(O)c4c(O)c(c(/C=N/N5CC[N+](C)(CC[O-])CC5)c(O)c4c3C2=O)NC(=O)/C(C)=C\C=C\C(C)C(O)C(C)C(O)C(C)C(OC(C)=O)C1C (centres unmarked) [compound of Formula II] | – | 18 mm | has activity |

— patent publication US7935705B2, “N-alkylated rifampin” (Medtronic, Inc., priority 2007, dated 2011)
